Source: patent US7772434B2, “Crystalline form of a β2 adrenergic receptor agonist” (Theravance, Inc., priority 2003, dated 2010)
Structures can show the parent of a compound that is named as a salt.

Assays:
[1] = Solid state stability testing (storage at elevated temperature and humidity); type: physicochemical
Description: Samples (250 mg each) of the monoHCl salt of Examples 9 and 10 were stored at 40° C. and 75% relative humidity in open containers and in closed containers. Additional samples (100 mg each) of the monoHCl salt were stored at 50° C. in closed containers. […] Water percentage of the samples stored at 40° C. was less than 0.25% after two and four weeks of storage.
The differential scanning calorimetry trace of Example 14, shown in FIG. 2 was obtained with a TA instruments model DSC2010. Samples were placed in sealed aluminum pans for analysis with an empty pan serving as the reference. Samples were equilibrated at 30° C. and heated at 5° C. per minute to a temperature of 300° C. The instrument was calibrated with an indium standard.
Thermogravimetric analysis was conducted using a TA instruments model Q50. Samples were weighed in aluminum pans and heated from 50° C. to 300° C. at a rate of 10° C./min.
HPLC analysis was conducted using a MAC MOD Ace-5, C18, 25 cm×4.6 mm, 5 μm column, equilibrated at 30° C. The mobile phases used were: A: 0.1% TFA in 98:2 water:acetonitrile; and B: 0.1% TFA in 10:90 water:acetonitrile. Detection was by UV absorbance at 244 nm. The initial condition was 6% phase B. A flow rate of 1.0 mL/min and gradients of 6 to 30% B over 25 min, 30% to 60% B in 10 min and 60% to 100% B in 2 min were utilized. The monoHCl salt of compound 1 gave a retention time of 19.1 min.
Water content was determined by coulometric Karl Fischer titration using a Brinkman Metrohm Karl Fischer Model 831 coulometer.

[2] = Hygroscopicity / deliquescence on exposure to the atmosphere at high relative humidity; type: physicochemical; details: exposed to the atmosphere for prolonged periods at high relative humidity
[3] = all storage conditions: 40° C. and 75% relative humidity in open and closed containers, 50° C. in closed containers, after four weeks

## O=CNc1cc([C@@H](O)CNCCc2ccc(NC[C@H](O)c3ccccc3)cc2)ccc1O [monohydrochloride salt of compound 1, N-{2-[4-((R)-2-hydroxy-2-phenylethylamino)phenyl]ethyl}-(R)-2-hydroxy-2-(3-formamido-4-hydroxyphenyl)ethylamine monohydrochloride]
[1]; [3]
  analysis by DSC and TGA: no detectable differneces
  change in the appearance of the material: no observable change
  chemical degradation, analysis by HPLC: no detectable chemical degradation
[1]; at elevated temperatures
  thermal stability: thermally stable
[1]; four weeks at 40° C. and 75% humidity in open and closed containers and at 50° C. in a closed container
  analysis by DSC: no detectable difference
[1]; four weeks at 40° C. and 75% humidity in open and closed containers and at 50° C. in a closed container, summary statement
  chemical degradation, analysis by HPLC: no appreciable chemical degradation
[1]; samples stored at 40° C. (75% relative humidity), after two and four weeks of storage, Karl Fischer
  Water percentage of the samples: less than 0.25%
[2]
  hygroscopicity / deliquescence: neither hygroscopic nor deliquescent
